These results are taken from patent US20230113802A1, “COMPOSITION AND METHOD TO PREPARE LONG-ACTING INJECTABLE SUSPENSION CONTAINING MULTIPLE CANCER DRUGS” (University of Washington, priority 2020, published 2023).

Where two headings read alike, the source gives them in different places.

This series in a line: Pharmacokinetic study of GT in DcNPs compared to CrEL (Example 2), plasma G, T and dFdU. The settings on record: for MRT / concentration at 3 h / AUC(0-inf) / C0 / half-life / Vd: female, BALB/c, mouse, plasma; for MRT: read-out: MRT (mean residence time); for concentration at 3 h: intravenous; for C0: read-out: C0 (concentration at time 0, back extrapolated); for half-life: read-out: T1/2,app (converted); for Vd: read-out: Vss; for time over which concentrations in plasma were detected: mice administered GT DcNPs, 48-hour study; for plasma concentration by 24 hours: mice treated with the CrEL control formulation. It is filed as in vivo, BALB/c mice. From the text: Drugs extracted from biological matrices such as plasma or tissue homogenates were quantified by a Shimadzu HPLC system coupled to a 3200 QTRAP mass spectrometer (Applied Biosystems, Grand Island, N.Y.). The HPLC system consisted of two Shimadzu LC-20A pumps, a DGU-20A5 degasser, and a Shimadzu SIL-20AC HT autosampler. The mass spectrometer was equipped with an electrospray ionization (ESI) TurbolonSpray source. The system was operated with Analyst software, version 1.5.2 (ABSciex, Framingham, Mass.). Chromatographic separation of G and T was achieved using a Synergi column (100×2.0 mm; 4-μm particle size) (Phenomenex, Torrance, Calif.) with an inline C8 guard column (4.0×2.0 mm) also from Phenomenex. The flow rate was set to 0.5 mL/min with a 5 μl sample injection volume. The mobile phase for separation consisted of pump A (20 mM Ammonium Acetate in water) and B (Reagent Alcohol). […] The needle was washed with isopropanol after each injection. Analytes were monitored using multiple-reaction monitoring (MRM) for positive ions.
Statistical comparisons were performed using 2-sided t-tests with Welch's correction for unequal variances. Significance probability α was set at 0.05. Pharmacokinetic parameters from non-compartmental analysis were calculated using the trapezoidal rule and relevant pharmacokinetic equations shown in Table 3.

[1] abbreviates: Control (CrEL suspension), 50/5 mg/kg G/T IV, mice.
The mark [2] stands for this setting: GT DcNP, 50/5 mg/kg G/T IV, mice.
The mark [3] stands for this setting: after GT DcNP dosing, 50/5 mg/kg G/T IV, mice.
The mark [4] stands for this setting: after control CrEL dosing, 50/5 mg/kg G/T IV, mice.
Where [5] appears, read: iv, 50 mg/kg, Control (CrEL suspension), 50/5 mg/kg G/T IV, mice.
The mark [6] stands for this setting: iv, 50 mg/kg, GT DcNP, 50/5 mg/kg G/T IV, mice.
[7] abbreviates: iv, GT DcNP, 50/5 mg/kg G/T IV, mice.
Setting [8] is: iv, 5 mg/kg, Control (CrEL suspension), 50/5 mg/kg G/T IV, mice.
The mark [9] stands for this setting: iv, 5 mg/kg, GT DcNP, 50/5 mg/kg G/T IV, mice.
[10] abbreviates: iv, Control (CrEL suspension), 50/5 mg/kg G/T IV, mice.

On to `Nc1ccn([C@@H]2O[C@H](CO)[C@@H](O)C2(F)F)c(=O)n1` [Gemcitabine, 4-amino-1-[(2R,4R,5R)-3,3-difluoro-4-hydroxy-5-(hydroxymethyl)oxolan-2-yl]pyrimidin-2-one], for which the “time over which concentrations in plasma were detected” value is not below 48 h and the “plasma concentration by 24 hours” value is “fell below the detection limit”. Also, for the setting “50/5 mg/kg G/T IV, mice”, the “AUC0 to ∞ Ratio (DcNP to control)” value is 61.0, the “C0 Ratio (DcNP to control)” value amounted to 1.1, the “Dose/AUC Ratio (DcNP to control)” value is 0.02 and the “MRT Ratio (DcNP to control)” value worked out at 45.2. Further, where the note is “50/5 mg/kg G/T IV, mice”, the “T1/2,app Ratio (DcNP to control)” value came to 8.6; the “Vss Ratio (DcNP to control)” value amounted to 0.7; the “plasma concentration at 3 hours, DcNP times greater than CrEL” value amounted to 470 times. The “AUC0 to ∞ Ratio (DcNP to control)” value (50/5 mg/kg G/T IV, mice, listed as G) amounted to 61. For the same compound, the “AUC0 to ∞ Ratio (DcNP to control)” value (50/5 mg/kg G/T IV, mice, listed as gemcitabine) is listed as 50. In addition, the “Dose/AUC (apparent clearance)” value under setting [1] was found to be 65.2 mL/h. The “G to dFdU ratio in plasma at 6 hours” value (CrEL control dosage form) is 0.01. In addition, the “difference in mean residence times of G and T after DcNP administration” value (GT DcNP) is given as 11.3 fold. Further, under setting [2], the “Dose/AUC (apparent clearance)” value was 1.1 mL/h. Moreover, for the setting “after GT in CrEL control dosage form IV, mice”, the “plasma concentration within 15 minutes” value stood at 12023.5 ng/mL. Also, the “mean plasma concentration at 3 hours” value (after control CrEL dosing, 50/5 mg/kg G/T IV, mice, listed as G) is on record as 87.3 ng/mL. Also, the MRT (50 mg/kg, Control (CrEL suspension), 50/5 mg/kg G/T IV, mice) turned out to be 0.25 h. For the same compound, the concentration at 3 h under setting [3] amounted to 41100 ng/mL. Further, the concentration at 3 h under setting [4] was found to be 87.3 ng/mL. Besides, under setting [5], the AUC(0-inf) is 15300 ng·h/mL, the C0 is 165000 ng/mL, the half-life was 1.6 h and the Vd was 0.0166 L. Under setting [6], the area under the curve AUC(0-inf) is 937000 ng·h/mL, the C0 was 181000 ng/mL, the mean residence time (MRT) was 11.3 h and the half-life is 13.7 h. Moreover, the Vd under setting [6] worked out at 0.0121 L. Under setting [7], the half-life was 13.7 h.
As to `CC(=O)O[C@H]1C(=O)[C@@]2(C)[C@H]([C@H](OC(=O)c3ccccc3)[C@]3(O)C[C@H](OC(=O)[C@H](O)[C@@H](NC(=O)c4ccccc4)c4ccccc4)C(C)=C1C3(C)C)[C@]1(OC(C)=O)CO[C@@H]1C[C@@H]2O` [Paclitaxel, [(1S,2S,3R,4S,7R,9S,10S,12R,15S)-4,12-diacetyloxy-15-[(2R,3S)-3-benzamido-2-hydroxy-3-phenylpropanoyl]oxy-1,9-dihydroxy-10,14,17,17-tetramethyl-11-oxo-6-oxatetracyclo[11.3.1.0^3,10.0^4,7]heptadec-13-en-2-yl] benzoate], the “time over which concentrations in plasma were detected” value is not above 6 h and the “plasma concentration by 24 hours” value was “fell below the detection limit”. For the same compound, the “plasma concentration at 3 hours, DcNP times greater than CrEL” value (50/5 mg/kg G/T IV, mice) is listed as 3.3 times. Also, under setting [1], the “Dose/AUC (apparent clearance)” value stood at 38.3 mL/h and the “T1/2,app” value stood at 1.8 h. In addition, under setting [2], the “Dose/AUC (apparent clearance)” value was 10.2 mL/h and the “T1/2,app” value came to 2.0 h. The concentration at 3 h under setting [3] was found to be 643 ng/mL. The concentration at 3 h under setting [4] is 194 ng/mL. Under setting [8], the MRT is 1 h and the Vd amounted to 0.0356 L. Also, under setting [9], the mean residence time MRT stood at 1 h and the Vd is 0.01 L. Under setting [10], the total exposure AUC(0-inf) was 2610 ng·h/mL and the C0 is 17700 ng/mL. Also, under setting [7], the AUC(0-inf) was 9810 ng·h/mL and the C0 is 13900 ng/mL.

What is called MRT is the average time that molecules of a dose stay in the body. One may read the AUC(0-inf) as the area under the concentration-time curve extrapolated to infinity.
